System: pain hypersensitivity (allodynia) after chronic constriction injury to the sciatic nerve
Experiment: Von Frey 50% withdrawal threshold in rats with chronic constriction injury to the sciatic nerve (neuropathic pain)
Format: in vivo, Sprague-Dawley rats
Conditions: allodynic rats, 500 ng single intrathecal injection
Procedure: Eleven adult, Sprague-Dawley rats received an experimental chronic constriction injury to the sciatic nerve (Mosconi & Kruger, 1996, Pain 64:37-57). Pain hypersensitivity, indicative of neuropathic pain, increased progressively over a two week interval and was monitored using the Von Frey technique (Chaplan et al., 1994, J. Neurosci. Methods 53:55-63). Following the development of allodynia (characterized by a 50% withdrawal threshold (WD50) of ≦2.0 g), rats were administered 500 ng tricyclodecan-9-yl-xanthogenate by intrathecal catheter, the tricyclodecan-9-yl-xanthogenate was prepared in a solution of saline (0.9% NaCl) with 10% v/v dimethyl sulfoxide. Tricyclodecan-9-yl-xanthogenate is available from EMD Biosciences (a division of Calbiochem). A solution of saline (0.9% NaCl) with 10% v/v dimethyl sulfoxide was injected into control rats as a vehicle. The volume of the vehicle administered was the same as for the PLCγ inhibitor solution.
Seven allodynic rats received single intrathecal injections of a vehicle, whereas 4 rats received single injections of tricyclodecan-9-yl-xanthogenate; the mean WD50 for both groups was 1.9±0.2 g prior to injections. […] This significant reduction of pain hypersensitivity persisted for greater than 6 hours.

Compound: S=C(S)OC1CC2CC1C1CCCC21 (centres unmarked) [tricyclodecan-9-yl-xanthogenate]
- persistence of significant reduction of pain hypersensitivity: greater than 6 hours
- 50% withdrawal threshold (WD50) (4 hours post-injection, pre-injection WD50 1.9±0.2 g, vehicle 4.1±0.7 g, p<0.05): 8.8 ± 2.1 g
